System: CN0375-F725-PDC KRAS spheroid viability
Experiment: Anticancer human tumor CN0375-F725-PDC patient-derived colon carcinoma cell line growth inhibition [KRAS2]
Settings: spheroids with HUVEC and MSC; for IC50: curve of first compound; for viability, T/C: stronger effect = lower value
Procedure, shortened: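 KRAS-mutant tumor cells were grown as spheroids with HUVEC endothelial cells and human MSCs as stroma. Targeted agents were tested alone and with KRAS pathway inhibitors. Doses started at or near clinical Cmax, or 10 microM, descending half-log.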

[1] = second compound 0.1 µM, first compound 0.0316 µM
[2] = second compound 0.316 µM, first compound 0.0316 µM
[3] = second compound 1 µM, first compound 0.0316 µM
[4] = second compound 3.16 µM, first compound 0.0316 µM
[5] = second compound 10 µM, first compound 0.0316 µM
[6] = second compound 0.1 µM, first compound 0.1 µM
[7] = second compound 0.1 µM, first compound 0.316 µM
[8] = second compound 0.1 µM, first compound 1 µM
[9] = second compound 0.1 µM, first compound 3.16 µM
[10] = second compound 0.1 µM, first compound 10 µM
[11] = second compound 0.316 µM, first compound 0.1 µM
[12] = second compound 0.316 µM, first compound 0.316 µM
[13] = second compound 0.316 µM, first compound 1 µM
[14] = second compound 0.316 µM, first compound 3.16 µM
[15] = second compound 0.316 µM, first compound 10 µM
[16] = second compound 1 µM, first compound 0.1 µM
[17] = second compound 1 µM, first compound 0.316 µM
[18] = second compound 1 µM, first compound 1 µM
[19] = second compound 1 µM, first compound 3.16 µM
[20] = second compound 1 µM, first compound 10 µM
[21] = second compound 3.16 µM, first compound 0.1 µM
[22] = second compound 3.16 µM, first compound 0.316 µM
[23] = second compound 3.16 µM, first compound 1 µM
[24] = second compound 3.16 µM, first compound 3.16 µM
[25] = second compound 3.16 µM, first compound 10 µM
[26] = second compound 10 µM, first compound 0.1 µM
[27] = second compound 10 µM, first compound 0.316 µM
[28] = second compound 10 µM, first compound 1 µM
[29] = second compound 10 µM, first compound 3.16 µM
[30] = second compound 10 µM, first compound 10 µM
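Note: spheroids exposed to agents for 7 days.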

SMILES: CC(=O)Nc1cccc(-n2c(=O)n(C3CC3)c(=O)c3c(Nc4ccc(I)cc4F)n(C)c(=O)c(C)c32)c1 + CC1OCC2(CCN(c3cnc(Sc4ccnc(N)c4Cl)c(N)n3)CC2)C1N
- IC50 (second compound 0.1 µM): 4.59 nM
- IC50 (second compound 0.316 µM): 2.09 nM
- IC50 (second compound 1 µM): 1.61 nM
- IC50 (second compound 3.16 µM): 0.826 nM
- IC50 (second compound 10 µM): 0.257 nM
- viability, T/C (second compound 0.1 µM, first compound 0.0001 µM): 90.5%
- viability, T/C (second compound 0.1 µM, first compound 0.000316 µM): 79.2%
- viability, T/C (second compound 0.1 µM, first compound 0.001 µM): 64%
- viability, T/C (second compound 0.1 µM, first compound 0.00316 µM): 54.7%
- viability, T/C (second compound 0.1 µM, first compound 0.01 µM): 42.8%
- viability, T/C [1]: 30.5%
- viability, T/C (second compound 0.316 µM, first compound 0.0001 µM): 84.5%
- viability, T/C (second compound 0.316 µM, first compound 0.000316 µM): 75.8%
- viability, T/C (second compound 0.316 µM, first compound 0.001 µM): 57.5%
- viability, T/C (second compound 0.316 µM, first compound 0.00316 µM): 44.9%
- viability, T/C (second compound 0.316 µM, first compound 0.01 µM): 39.2%
- viability, T/C [2]: 32.5%
- viability, T/C (second compound 1 µM, first compound 0.0001 µM): 78.4%
- viability, T/C (second compound 1 µM, first compound 0.000316 µM): 66.8%
- viability, T/C (second compound 1 µM, first compound 0.001 µM): 55.1%
- viability, T/C (second compound 1 µM, first compound 0.00316 µM): 42.5%
- viability, T/C (second compound 1 µM, first compound 0.01 µM): 35%
- viability, T/C [3]: 27.4%
- viability, T/C (second compound 3.16 µM, first compound 0.0001 µM): 66.5%
- viability, T/C (second compound 3.16 µM, first compound 0.000316 µM): 65.8%
- viability, T/C (second compound 3.16 µM, first compound 0.001 µM): 45.2%
- viability, T/C (second compound 3.16 µM, first compound 0.00316 µM): 36.2%
- viability, T/C (second compound 3.16 µM, first compound 0.01 µM): 31.4%
- viability, T/C [4]: 27.2%
- viability, T/C (second compound 10 µM, first compound 0.0001 µM): 63.1%
- viability, T/C (second compound 10 µM, first compound 0.000316 µM): 46.4%
- viability, T/C (second compound 10 µM, first compound 0.001 µM): 37.6%
- viability, T/C (second compound 10 µM, first compound 0.00316 µM): 30%
- viability, T/C (second compound 10 µM, first compound 0.01 µM): 23.5%
- viability, T/C [5]: 24.6%

SMILES: COc1cc(Nc2ncc3c(n2)-c2ccc(Cl)cc2C(c2c(F)cccc2OC)=NC3)ccc1C(=O)O + CC1OCC2(CCN(c3cnc(Sc4ccnc(N)c4Cl)c(N)n3)CC2)C1N
- IC50 (second compound 0.1 µM): > 10000 nM
- IC50 (second compound 0.316 µM): > 10000 nM
- IC50 (second compound 1 µM): > 10000 nM
- IC50 (second compound 3.16 µM): > 10000 nM
- IC50 (second compound 10 µM): > 10000 nM
- viability, T/C [1]: 91.5%
- viability, T/C [6]: 90.4%
- viability, T/C [7]: 85.8%
- viability, T/C [8]: 80.5%
- viability, T/C [9]: 84.6%
- viability, T/C [10]: 70%
- viability, T/C [2]: 88.8%
- viability, T/C [11]: 86.5%
- viability, T/C [12]: 85.6%
- viability, T/C [13]: 82.1%
- viability, T/C [14]: 82.7%
- viability, T/C [15]: 72.5%
- viability, T/C [3]: 79.9%
- viability, T/C [16]: 81.9%
- viability, T/C [17]: 82.2%
- viability, T/C [18]: 75.9%
- viability, T/C [19]: 74.7%
- viability, T/C [20]: 64.7%
- viability, T/C [4]: 81%
- viability, T/C [21]: 74.6%
- viability, T/C [22]: 70.3%
- viability, T/C [23]: 70.6%
- viability, T/C [24]: 67.9%
- viability, T/C [25]: 62.8%
- viability, T/C [5]: 66.7%
- viability, T/C [26]: 71.4%
- viability, T/C [27]: 67.2%
- viability, T/C [28]: 62.6%
- viability, T/C [29]: 61.6%
- viability, T/C [30]: 53.6%

SMILES: COc1cc2nccc(Oc3ccc(NC(=O)C4(C(=O)Nc5ccc(F)cc5)CC4)cc3)c2cc1OC + CC1OCC2(CCN(c3cnc(Sc4ccnc(N)c4Cl)c(N)n3)CC2)C1N
- IC50 (second compound 0.1 µM): > 10000 nM
- IC50 (second compound 0.316 µM): 5810 nM
- IC50 (second compound 1 µM): 2580 nM
- IC50 (second compound 3.16 µM): 1880 nM
- IC50 (second compound 10 µM): 644 nM
- viability, T/C [1]: 104%
- viability, T/C [6]: 94.5%
- viability, T/C [7]: 83.3%
- viability, T/C [8]: 69.3%
- viability, T/C [9]: 56.3%
- viability, T/C [10]: 63.2%
- viability, T/C [2]: 99.5%
- viability, T/C [11]: 94.6%
- viability, T/C [12]: 85.9%
- viability, T/C [13]: 68.4%
- viability, T/C [14]: 44.6%
- viability, T/C [15]: 53.5%
- viability, T/C [3]: 86.3%
- viability, T/C [16]: 84.7%
- viability, T/C [17]: 75.5%
- viability, T/C [18]: 67.9%
- viability, T/C [19]: 38.4%
- viability, T/C [20]: 53.9%
- viability, T/C [4]: 84.4%
- viability, T/C [21]: 78.9%
- viability, T/C [22]: 71.7%
- viability, T/C [23]: 60.7%
- viability, T/C [24]: 36.7%
- viability, T/C [25]: 46.8%
- viability, T/C [5]: 66.9%
- viability, T/C [26]: 69.3%
- viability, T/C [27]: 57.9%
- viability, T/C [28]: 46.2%
- viability, T/C [29]: 25.9%
- viability, T/C [30]: 31.2%
